Assay results published in patent publication US10947188B2, “Small molecule ferroptosis inducers” (THE TRUSTEES OF COLUMBIA UNIVERSITY IN THE CITY OF NEW YORK, priority 2016, dated 2021).

Legend:
HT-1080 cells [1] = test: Cell viability assay (Alamar Blue), lethal compounds with or without modulators; assay type: cell-based; conditions: for effect on FIN56 lethality: HT-1080 cells, modulator cotreatment or pretreatment
Method: 1,000 cells per 36 μl were seeded in each well in 384-well plates. Lethal compounds were dissolved, and a twofold, 12-point dilution series was prepared in DMSO. Compound solutions were further diluted with media at 1:25, and 4 μl per well of the diluted solutions was added to cell cultures immediately after cells were seeded. […] When other cell-death-modulating compounds (100 nM sodium selenite, 1 μM cerivastatin, 100 μg/mL mevalonic acid) were used in cotreatments, they were supplemented to cell culture for 24 h before lethal compounds were added to cell culture, after which cells were further incubated for 24 h at 37° C. under 5% CO2. On the day of the viability measurement, we added 10 μl per well of 50% Alamar Blue diluted in media (Life Technologies) and further incubated the cells at 37° C. for 6 h. Fluorescence intensity (excitation/emission: 530/590) was measured with a Victor 3 plate reader (PerkinElmer), and the normalized viability was calculated as VL=(IL−I0)/(IV−I0), where VL, I0, IV, and IL are the normalized viability and the raw fluorescence intensities from the wells containing media, cells treated with a vehicle (negative control), and cells with the lethal compound (L), respectively. When the effect of a chemical modulator (M) on L was calculated, we instead used the equation VL|M=(IM,L−I0)/(IM,V−I0), where VL|M, IM,L and IM,V are the normalized viability, and fluorescence intensity from cells treated with […], respectively. The viability was typically measured in biological triplicate unless otherwise specified. A representative dose-response curve, the mean and standard error of normalized viability from one replicate were plotted. […]

HT-1080 cells [2] = test: Analysis of lipid ROS generation (C11-BODIPY 581/591 flow cytometry); assay type: cell-based
Method: Cells were treated with test compounds, trypsinized, pelleted, and washed once with PBS. For lipophilic or aqueous ROS detection, cells were re-suspended in Hanks' Balanced Salt Solution (HBSS; […] Cells were then pelleted, re-suspended in 500 μL HBSS, strained through a 40-μm cell strainer (BD Falcon), and analyzed using a BD Accuri C6 flow cytometer (BD Biosciences). Both dyes were measured in the FL1 channel. Experiments were done in biological triplicates.

GPX4 = test: Western blotting of GPX4 protein abundance; assay type: cell-based, human; conditions: 5 μM FIN56
Method: Seeded 300,000 cells (HT-1080 or BJeLR) per well in six-well plates. For cotreatment, ferroptosis inducers (10 μM erastin for 11 h, 0.5 μM (1S, 3R)-RSL3 for 2 h, or 5 μM FIN56) and 100 μM α-tocopherol were added to cell culture at the same time, and cells were then incubated for 10 h (FIG. 2E). When other death-modulating compounds (100 nM sodium selenite, 1 μM cerivastatin, 100 μg/mL mevalonic acid, 30 μM C75, or 2 μM cerulenin) were used in cotreatments, cells were pre-incubated with the modulators for 24 h before being treated with ferroptosis inducers for 6 h. Cell lysis, SDS-PAGE and protein transfer to PVDF membrane were performed as previously described (Dixon et al. 2012). We used the following antibodies: anti-human α-tubulin (Santa Cruz Biotechnology, sc-32293, 1:10,000 dilution), anti-human GPX4 (Abcam, ab41787, 1:2,000 dilution), anti-human GPX1 (R&D Systems, AF3798, 1:1,000 dilution), and anti-human SQS (Abcam, ab109723 for full-length, ab195046 for truncated, both at 1:1,000 dilution). Secondary antibodies were from LI-COR (1:3,000 dilution). The PVDF membranes labeled with primary and secondary antibodies were scanned using an Odyssey Imaging System (LI-COR). Experiments were performed in biological triplicates, and the mean±s.e. of intensity was plotted.

O=S(=O)(NC1CCOCC1)c1ccc2c(c1)C(=NOCCOCCOCCO)c1cc(S(=O)(=O)NC3CCOCC3)ccc1-2 [SRS11-66, 9-(2-(2-(2-hydroxyethoxy)ethoxy)ethoxyimino)-N2,N7-bis(tetrahydro-2H-pyran-4-yl)-9H-fluorene-2,7-disulfonamide]
ferroptosis-inducing activity of FIN56 analogs (HT-1080 cells [1]; HT-1080, 48 hrs): complete loss of activity

CCCCCCCCCCCCCCOc1ccc(C(=O)O)o1 [TOFA]
effect on FIN56 lethality (HT-1080 cells [1]): potent suppressor of FIN56 | effect on lipid ROS generation after FIN56 treatment (HT-1080 cells [2]): suppressed lipid ROS generation after FIN56 treatment | effect on FIN56-induced decrease of GPX4 protein abundance (GPX4): inhibited the loss of GPX4

F/C(COc1ccc2c(c1)[nH]c1ccccc12)=C1/CN2CCC1CC2 [YM-53601]
effect on FIN56 lethality (HT-1080 cells [1]): suppressed FIN56 lethality

C[C@H]1O[C@@H](O[C@H]2[C@@H](O)C[C@H](O[C@H]3[C@@H](O)C[C@H](O[C@H]4CC[C@@]5(C)[C@H](CC[C@@H]6[C@@H]5C[C@@H](O)[C@]5(C)[C@@H](C7=CC(=O)OC7)CC[C@]65O)C4)O[C@@H]3C)O[C@@H]2C)C[C@H](O)[C@@H]1O [digoxin, Digoxin]
effect on FIN56 lethality (HT-1080 cells [1]): enhanced FIN56 lethality

COC1=C(OC)C(=O)C(CCCCCCCCCCO)=C(C)C1=O [idebenone]
effect on staurosporine-induced cell death (HT-1080 cells [1]): enhanced it | effect on FIN56 lethality (HT-1080 cells [1]): the only suppressor of FIN56-induced ferroptosis | effect on lipid ROS generation after FIN56 treatment (HT-1080 cells [2]): inhibited lipid ROS generation after FIN56 treatment | effect on FIN56-induced decrease of GPX4 protein abundance (GPX4): did not block the decrease in GPX4 protein abundance

C[C@H](CCC(=O)O)C[C@H](C)C[C@H](C)C(=O)/C=C(\O)[C@H](C)C[C@H](C)C/C=C/[C@@H](C)[C@@H](O)[C@@H](C)[C@@H](O)C[C@@H]1CC[C@@](C)([C@H]2CC[C@@](C)([C@@H](C)O)O2)O1 [ionomycin]
effect on FIN56 lethality (HT-1080 cells [1]): enhanced FIN56 lethality

O=[Se]([O-])[O-].[Na+].[Na+] [selenite, sodium selenite]
effect on FIN56 lethality (HT-1080 cells [1]): suppressed FIN56 lethality

C=C(CC[C@]12O[C@H](C(=O)O)[C@@](O)(C(=O)O)[C@](C(=O)O)(O1)[C@H](OC(=O)/C=C/[C@@H](C)C[C@@H](C)CC)[C@H]2O)[C@@H](OC(C)=O)[C@H](C)Cc1ccccc1 [zaragozic acid A]
effect on FIN56 lethality (HT-1080 cells [1]): suppressed FIN56 lethality

Cc1c(C)c2c(c(C)c1O)CC[C@@](C)(CCC[C@H](C)CCC[C@H](C)CCCC(C)C)O2 [α-tocopherol]
effect on staurosporine-induced cell death (HT-1080 cells [1]): suppressed staurosporine-induced cell death | effect on lipid ROS generation after FIN56 treatment (HT-1080 cells [2]): inhibited lipid ROS generation after FIN56 treatment | effect on FIN56-induced decrease of GPX4 protein abundance (GPX4): not inhibited
